Data published in patent US20050106195A1, “N-octanoyl amino acid composition for slimming the human body” (priority 2003, published 2005).

System: human adipocytes
Assay: In vitro lipolytic activity: free fatty acid release from isolated human adipocytes in suspension
Assay type: cell-based
Conditions: 2 h at 37° C.; for Free fatty acid concentration: mean of five assays, control 11.54 ± 2.71
Experimental: This is because triglycerides are stored in the adipocytes and constitute the fat reserve. For this reserve to diminish, which is the desired aim when slimming products are used, the triglycerides must be hydrolysed so that the fatty acids can be removed from the cell. Hydrolysis of the triglycerides to nonesterified fatty acids and glycerol is called lipolysis.
The method described consists in incubating the products in the presence of human adipocytes in suspension, followed by the measurement of the nonesterified fatty acid level in the adipocyte incubation medium. The free fatty acid level thus reflects the hydrolysis of the triglycerides present in the adipocytes.
The test is carried out using human adipocytes isolated and prepared as a cellular suspension. The adipocytes are isolated from the subcutaneous abdominal adipose tissue recovered during plastic surgery operations (abdominal plastic surgery operations) performed on women. The cells are isolated from fresh tissue. The adipose tissue is isolated and dissociated by the action of a collagenase (SIGMA™, 1 mg/ml, 30 minutes at 37° C., gentle stirring). Collagenase digests the connective tissue present in the adipose tissue. After digestion, the cells are filtered and washed in an appropriate culture medium containing MEM medium free of phenol red, free of glutamine (SIGMA)+2.2 mg/ml of sodium bicarbonate (GIBCO)+50 IU of penicillin (BIOWHITTAKER™)+50 μg/ml of streptomycin (BIOWHITTAKER™)+1% (v/v) of L-glutamine (BIOWHITTAKER™)+0.5% of lipid-free serum albumin (SIGMA™). The adipocyte suspension is used immediately after its preparation.
The test products are diluted in the adipocyte culture medium. They are incubated with the cells in suspension for two hours at 37° C. (250 μl of product+250 μl of adipocyte suspension).
After the incubation, the cell lysis is checked visually by the presence of a lipid layer at the surface of the cellular suspension. The supernatant media are collected. The free fatty acids are assayed by spectrophotometry using a commercial kit (NEFA™ C kit, WAKO), with reference to a fatty acid calibration series. The lypolytic activity of the products is evaluated relative to a control group incubated in the presence of adipocytes and in the absence of product. The reactivity of the adipocytes is systematically checked for the measurement of the lipolytic activity of the reference products, caffeine (1,3,7-trimethyl-xanthine) and theophylline (1,3-dimethyl-2,6-dihydroxy-purine). Five assays are performed for each of the test products. The lipolytic activity of LIPACIDE™ C8G, which contains active material 100% N-octanoylglycine, was thus evaluated.

[1] = incubation concentration 0.0019 wt %/volume
[2] = incubation concentration 0.0001 wt %/volume
[3] = incubation concentration 0.0005 wt %/volume
[4] = incubation concentration 0.0010 wt %/volume

Row | Compound | Lipolytic activity (compared with the control = 100) [1] | Free fatty acid concentration [1] | Lipolytic activity (compared with the control = 100) [2] | Free fatty acid concentration [2] | Lipolytic activity (compared with the control = 100) [3] | Free fatty acid concentration [3] | Lipolytic activity (compared with the control = 100) [4] | Free fatty acid concentration [4]
1 | Cn1c(=O)c2c(ncn2C)n(C)c1=O [Caffeine, 1,3,7-trimethyl-xanthine, reference compound] | 131 | 15.10 ± 4.11 µM |  |  |  |  |  | 
2 | CCCCCCCC(=O)NCC(=O)O [LIPACIDE ™ C8G, N-octanoylglycine] |  |  | 206 | 23.83 ± 5.11 µM | 219 | 25.30 ± 2.70 µM | 223 | 25.75 ± 0.86 µM
